One assay has as its system Hsp90. The assay can be described thus: Degradation of Hsp90 client proteins, Method 2: IC50 for Her2 degradation / inhibition of Hsp90 (MV-4-11 cell survival, Cell Counting Kit-8). The assay is classed as cell-based, human. Particulars: Table 9, MV-4-11 cells, 72 hours, read-out: IC50 Range.
Another assay concerns Her2. Put plainly: Degradation of Her2 in BT-474 cells, Method 1 (Western blot). The assay is classed as cell-based, human. Particulars: 0.5 μM, overnight. On the procedure: A. Cells and Cell Culture Human high-Her2 breast carcinoma BT474 (HTB-20), SK-BR-3 (HTB-30) and MCF-7 breast carcinoma (HTB-22) from American Type Culture Collection, VA, USA were grown in Dulbecco's modified Eagle's medium with 4 mM L-glutamine and antibiotics ([…] penicillin and 100 ug/ml streptomycine; GibcoBRL). To obtain exponential cell growth, cells were trypsinized, counted and seeded at a cell density of 0.5×10^6 cells/ml regularly, every 3 days. All experiments were performed on day 1 after cell passage. B. Degradation of her2 in Cells after Treatment with a Compound of the Invention
BT-474 cells are treated with 0.5 μM, 2 μM, or 5 μM of 17AAG (a positive control) or 0.5 μM, 2 μM, or 5 μM of a compound of the invention overnight in DMEM medium. After treatment, each cytoplasmic sample is prepared from 1×10^6 cells by incubation of cell lysis buffer (#9803, cell Signaling Technology) on ice for 10 minutes. The resulting supernatant used as the cytosol fractions is dissolved with sample buffer for SDS-PAGE and run on a SDS-PAGE gel, blotted onto a nitrocellulose membrane by using semi-dry transfer. Non-specific binding to nitrocellulose is blocked with 5% skim milk in TBS with 0.5% Tween at room temperature for 1 hour, then probed with anti-Her2/ErB2 mAb (rabbit IgG, #2242, Cell Signaling) and anti-Tubulin (T9026, Sigma) as housekeeping control protein. […]
(In general: Immunoblotting shows a protein as a band on a membrane.)

Turning to `COCCN(C)c1ccc(-n2c(O)nnc2-c2cc(C(C)C)c(O)cc2O)c[n+]1[O-]` [Compound 3d], the IC50 in the assay with Hsp90 amounted to 180 nM.

As to `C=CCNC1=C2C[C@@H](C)C[C@H](OC)[C@H](O)[C@@H](C)/C=C(\C)[C@H](OC(N)=O)[C@@H](OC)/C=C\C=C(/C)C(=O)NC(=CC1=O)C2=O` [Compound 17AAG, 17-allylamino-17-demethoxygeldanamycin], the “degradation of Her2” value with Her2 was “partial degradation”.

The term IC50 denotes the point on the concentration scale where inhibition reaches its midpoint.

The values are drawn from patent US9206162B2, “Triazole compounds that modulate Hsp90 activity” (Synta Pharmaceuticals Corp., priority 2006, dated 2015).
